The values below come from US6537545B1, “Use of corneal hardening agents in enzymeorthokeratology” (ISTA Pharmaceuticals, Inc., priority 1998, dated 2003).

SMILES strings stand for the structures.

Data set [1] has as its system cornea. The experiment in a line: Corneal elasticity, recovery from indentation by spherical glass indentor (Example 7). In kind it is in vivo, human. On the procedure: A precision spherical glass indentor was used to contact the corneal surface of subjects treated with the methods of the present invention to measure changes in corneal elasticity. The method used involved the application of the indentor, in the form of a small spherical ball to gently deflect into a test cornea to establish an initial deflection value. Measurements were taken by using an interferometer to view the deflection. Following this application, the relaxation period was measured by observing the change in the impression made by the indentor.
The indentation range of movement was characterized using a precision linear variable differential transducer (LVDT) device that measured the linear travel of a stage carrying the indentor probe. The average travel distance of the probe was established at approximately 700 micrometers. The contact depth of the indentor probe was measured by evaluating the corneal surface immediately after indentation and measuring the local height values caused by the probe contact. This value was measured to range from 266 to 300 micrometers.
A digital timer was used to mark the beginning and ending times during observation. Changes in the impression were readily observed during this period. The final end point was considered to be when the local fringe disturbance was recovered blending with the undisturbed neighboring fringes. […] However, given the time scales involved, the value of this error is considered to be small.
The method of inducing corneal inflection involved first contacting the test corneal with the indentor. After the initial contact with the cornea was established, the probe was moved forward into the cornea to a predetermined distance. Seven hundred microns was used to achieve adequate deflection. Topography was taken immediately after the deflection to record the impression made in the cornea. Observations of the cornea were then made at one (1) minute intervals to note the change in the impression made. […] Another topography was done after five (5) minutes to record the final condition of the impression. […]

Data set [2] deals with Dutch Belted rabbit corneas. The data set is described as follows: Histopathologic examination of harvested corneas (Example 1). The format is in vivo. To be noted: rabbits; eyes harvested Study Day 58. On the procedure: The animals were sacrificed and their eyes were harvested on Study Day 58. The animals in the study were euthanised using an intravenous injection of pentobarbital (2 mg/kg). The eyes of the animals were enucleated immediately after sacrifice using Castro-Viejo scissors. The corneas of the eyes were then removed and placed on the end of a glass tube and cut in half. These samples were then snap frozen in liquid nitrogen. […] The corneas were then sectioned, stained with hematoxylin/eosin and the slides were sent to a Board-certified Veterinary Pathologist for interpretation.

Data set [3] concerns eyes of non-sighted human patients. The data set is described as follows: Safety of enzymatic corneaplasty with hyaluronidase and topical 3% glyceraldehyde in two non-sighted human patients (Example 4). The format is in vivo. Here is the method:
The two patients (Nos. 1108 and 1105) each received an intrastromal injection of 500 IU of hyaluronidase. […] Patient 1108 wore the lenses for 21 days while patient 1105 wore the lenses for 50 days.
Patient 1108 was treated according to the protocol outline above. After the 21 day lens wearing period had expired, the patient was instructed to apply two (2) drops of the 3% glyceraldehyde solution four times per day. The application of 3% glyceraldehyde continued for thirty-six (36) days after lens wear had ceased. Following termination of the 3% glyceraldehyde treatment, the patient was examined occasionally and the final examination was administered 126 days following the cessation of glyceraldehyde treatment.
This patient was treated as described above and wore the RGP lenses for 50 days. Unlike patient 1108, patient 1105 was treated with the 3% glyceraldehyde solution for one (1) month while the patient was wearing the RGP contact lenses. The 3% glyceraldehyde solution was applied four times per day for a total period of 43 days.

Data set [4] has as its system Dutch Belted rabbit eyes. The experiment in a line: GLP safety study, histopathology (Example 3). The format is in vivo. To be noted: rarely noted in both glyceraldehyde and saline treated groups; Study Day 40. The text has this: On Study Day 40, after 32 days of drops, the animals were sacrificed and the eyes were harvested according to the methods described in Experiment 2. The eyes were fixed in half-strength Karnovsky's fixative as described in Experiment 2 and sent to a Board Certified Veterinary Pathologist for interpretation.

Data set [5] has as its system eyes of myopic human subjects. The data set is described as follows: Mild myopia study, group III: corrective lenses and 3% glyceraldehyde without hyaluronidase (Example 9). To be noted: for UVA at follow-up after end of treatment: no hyaluronidase. In kind it is in vivo. The source says:
Given the favorable results obtained in Example 8, an additional study was undertaken to test the safety and efficacy of the method of the present invention using a larger group of subjects. In this study, a group of subjects were selected and randomly separated into three test groups to test the safety and efficacy of using hyaluronidase and a glyceraldehyde solution for treating subjects with sub-optimal visual acuity. Groups one and two received an intrastromal injection of hyaluronidase (50 and 500 IU, respectively), while group three received a control injection of saline.
Following a two week incubation period after the injection, the three groups were fitted with corrective lenses to optimize the visual acuity of the subjects. The corrective lenses were left in place for a period of time sufficient to alter the shape of the subjects' eyes so as to achieve an optimal visual acuity. This period of time was generally 2 days in length. Once an acceptable visual acuity was achieved, the subjects in the three groups received a topical 3% glyceraldehyde solution in the form of ophthalmic drops four times per day while wearing the corrective lenses. The glyceraldehyde treatment was generally administered for one month. Lens wear occurred from 8 to 12 hours during the day.
At the end of the treatment period both the lens wear and the glyceraldehyde solution administration was terminated. The general health and visual acuity of the subjects was monitored from 3 to 5 months following treatment termination.
As with groups I and II, the test subjects were examined initially to establish a baseline from which the future results of the treatment were compared. Following the establishment of a baseline reading, group III subjects were fitted with contact lenses and wore the corrective lenses at night for a period of two (2) to seven (7) days or until an acceptable visual acuity (approximately 20/20) was achieved. Unlike groups I and II, group III test subjects in this group received no injection of hyaluronidase during the course of treatment. Subjects achieving an acceptable visual acuity received the topical 3% glyceraldehyde solution in the form of ophthalmic drops four times per day (08:00, 12:00, 16:00, and 20:00) for a period of 1 month in conjunction with daytime lens wear for stabilization. During this period, lens wear occurred for approximately 8-12 hours per day and there was no nocturnal lens wear.
The subjects were examined periodically during the glyceraldehyde treatment to monitor changes in the health of the treated eyes.
At the end of the treatment period, the stabilizing lens were removed and the administration of the 3% glyceraldehyde solution was terminated. Following termination of the treatment, the subjects were examined immediately after treatment was terminated, once a week for the first four weeks after termination, and then monthly to measure changes in the visual acuity of the treated eyes. The health of the eye was also monitored. Sequelae characterized by the appearance or worsening of serious ocular symptoms or slit-lamp findings observed during these examinations was assessed. The proportions of subjects with such findings were analyzed.
The visual acuity values shown are obtained using the Snellen letters test and the Early Treatment Diabetic Retinopathy Study (ETDRS) protocol. The table values shown are the better values as compared between the results of the two methods. The subjects' baseline visual acuity ranged from 20/80 to 20/300.

As for `O=CC(O)CO` (centres unmarked) [glyceraldehyde], the “time for cornea to recover from indentation” value in data set [1] (after about two weeks of glyceraldehyde solution drops) fell in the range of 20 to 30 s. In data set [1] (glyceraldehyde solution drops, from more rapid indentation recovery), the “change in corneal elasticity after treatment” value is listed as “more elastic”. Besides, the “histopathologic differences between corneas of control and treated groups” value in data set [2] was “no appreciable differences”. The “level of SPK after termination of lens wear while continuing 3% glyceraldehyde” value in data set [3] (patient 1105) is on record as “observed to decrease”. Besides, the “level of superficial punctate keratopathy (SPK) during lens wear and 3% glyceraldehyde application” value in data set [3] (patient 1105, 500 IU hyaluronidase, RGP lenses 50 days, drops four times per day, 43 days) is “not observed to increase”. In addition, the “appearance of corneas at follow-up” value in data set [3] (patient 1105, 98 days post cessation of glyceraldehyde treatment) is “appeared normal”. In addition, in data set [3] (patient 1105, within 48 hours of ceasing the 43 day glyceraldehyde treatment), the “appearance of corneas under slit-lamp biomicroscopy” value was “appeared normal under slit-lamp biomicroscopy and were free of any SPK”. Besides, the “effects on the stroma or the endothelial cells during glyceraldehyde treatment” value in data set [3] (patient 1108, 500 IU hyaluronidase, lenses 21 days, then 3% glyceraldehyde 2 drops four times per day, 36 days) is recorded as “did not indicate any deleterious effects”. In data set [3] (patient 1108, after the 36 day protocol up to final examination 126 days after cessation), the “adverse reactions after completion of treatment” value is on record as “Nor were there any adverse reactions observed”. Moreover, the “overall observable negative results” value in data set [3] (two non-sighted human patients) was “no observable negative results”. Besides, the “histopathology: focal increase in cellularity of corneal stroma, reduplication of Descemet's membrane, relation to treatment” value in data set [4] is reported as “not associated with treatment with the drops”. Also, the “overall effect on retention of orthokeratology benefits” value in data set [5] (glyceraldehyde treatment in the absence of hyaluronidase) was “effective in extending the retention time”. The “UVA at follow-up after end of treatment” value in data set [5] (subject 005, four month time point, baseline 20/100) is recorded as 20/100; in data set [5] (subject 006, five month time point, baseline 20/200), 20/100; in data set [5] (subject 012, four month time point, baseline 20/200), 20/100; in data set [5] (subject 014, three month time point, baseline 20/80), 20/50; in data set [5] (subject 016, four month time point, baseline 20/300), 20/80; in data set [5] (subject 016, three month point, baseline 20/300) it was 20/60. Moreover, the “UVA at follow-up after end of treatment” value in data set [5] (subject 021, two month time point, baseline 20/80) is reported as 20/60; in data set [5] (subject 032, two month time point, baseline 20/120), 20/60.
